Drawing on US9296745B2, “Diacylglycerol acyltransferase 2 inhibitors” (Pfizer Inc., priority 2012, dated 2016), this text covers IC50 for 23 compounds.

Experiment [1] has as its target DGAT2 (Homo sapiens (Human), UniProt Q96PD7). As to the kind of experiment: IC50 determination for DGAT2 inhibitors in human hepatocytes ([1,3-14C]-glycerol incorporation into lipids). It is filed as cell-based. The note with it: average IC50; cryopreserved human hepatocytes, selective DGAT1 inhibitor (3 μM) in all wells, 3 hour incubation with [1,3-14C]-glycerol; read-out: IC50 (nM) in primary human hepatocyte. The procedure:
For evaluation of the effects of DGAT2 inhibitors in a cell-based setting, cryopreserved human hepatocytes (Lot QOC, Celsis, Chicago, Ill.) were thawed and plated onto type I collagen-coated plates according to the manufacturer's instructions. After 24 hours overnight recovery period, the cells were overlayed with media containing 250 μg/ml Matrigel (BD Biosciences, San Jose, Calif.). The following day, media was aspirated and replaced with serum-free Williams Media E (Life Technologies, Grand Island, N.Y.) containing 400 μM sodium dodecanoate (Sigma-Aldrich, St. Louis, Mo.). Forty minutes later, DGAT2 inhibitors (prepared as 100× stocks in 25% DMSO, 75% Williams' Media E) were added to the desired final concentration. […] After a 20 minute preincubation, 0.2 μCi [1,3-^14C]-glycerol (American Radio Chemicals, St. Louis, Mo.) was added to each well and mixed by gentle pipetting prior to a 3 hour incubation. At this point, media was aspirated and the cells were lysed in isopropyl alcohol:tetrahydrofuran (9:1) prior to centrifugation at 3000 rpm for 5 minutes. Radiolabeled lipids were resolved using a 2-solvent system by thin layer chromatography using standard technique (solvent 1 contained ethyl acetate: isopropyl alcohol: chloroform:methanol:0.25% potassium chloride in water (100:100:100:40.2:36.1, v/v/v/v) and solvent 2 contained hexane: diethyl ether: acetic acid (70:27:3, v/v/v)). After separation, radiolabeled lipids were visualized using a Molecular Dynamics' PhosphorImager system. The half maximal inhibitory concentrations (IC50 values) were determined using Graph Pad Prism (GraphPad Software, Inc., La Jolla, Calif.).

Experiment [2] addresses Human DGAT2 (hDGAT2) (Homo sapiens (Human), UniProt Q96PD7). Nature of the experiment: In vitro DGAT2 assay, IC50 determination with hDGAT2 membrane fraction. The experiment is classed as biochemical. The essentials:
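CHAPS-solubilized membrane fraction of FLAG-tagged hDGAT2 from baculovirus-infected SF9 cells (0.01 mg/mL) in 100 mM Hepes-NaOH pH 7.4, 20 mM MgCl2, 200 nM methyl arachidonyl fluorophosphonate; compounds pre-incubated 20 min with 0.04% BSA. Reaction 40 min at room temperature, stopped with H3PO4. [^14C]tridecanoylglycerol in organic phase counted; 11-point geometric mean IC50.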

The mark [3] stands for this setting: geometric mean, background for complete inhibition of DGAT2 obtained with 50 μM (1R,2R)-2-({3′-Fluoro-4′-[(6-fluoro-1,3-benzothiazol-2-yl)amino]-1,1′-biphenyl-4-yl}carbonyl)cyclopentanecarboxylic acid, read-out: DGAT2 IC50.
Where [4] appears, read: geometric mean, background for complete inhibition of DGAT2 obtained with Example 196-A instead of the cyclopentanecarboxylic acid reference, read-out: DGAT2 IC50 (nM), values in the parentheses.

Like-named read-outs stand apart in the source and are kept apart here.

Sequence of DGAT2 (Q96PD7 whole entry): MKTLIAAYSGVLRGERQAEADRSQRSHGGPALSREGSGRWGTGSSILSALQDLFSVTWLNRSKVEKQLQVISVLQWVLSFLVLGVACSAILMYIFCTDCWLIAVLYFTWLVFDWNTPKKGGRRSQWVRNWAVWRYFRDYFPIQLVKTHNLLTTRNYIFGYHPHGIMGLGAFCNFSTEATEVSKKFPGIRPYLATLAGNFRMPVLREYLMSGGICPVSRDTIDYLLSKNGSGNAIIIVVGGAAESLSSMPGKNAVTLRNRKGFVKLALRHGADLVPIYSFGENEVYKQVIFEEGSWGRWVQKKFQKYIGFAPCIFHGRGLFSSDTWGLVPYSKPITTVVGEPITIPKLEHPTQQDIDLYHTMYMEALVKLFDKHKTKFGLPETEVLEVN
Sequence of Human DGAT2 (hDGAT2) (Q96PD7 whole entry): as above

By IC50 is commonly meant the concentration needed to halve the response being measured. With `CC(c1nc2ccc(N3CCC[C@@H](C(=O)N4CCCC4)C3)nc2[nH]1)n1cccn1` (stereo partly drawn) [Example 58, (R)-(1-(2-(1-(1H-Pyrazol-1-yl)ethyl)-3H-imidazo[4,5-b]pyridin-5-yl)piperidin-3-yl)(pyrrolidin-1-yl)methanone], the results for the half-maximal inhibitory concentration (IC50) in experiment [1] and in experiment [2] (setting [3]) were 86.8 nM and 363 nM, respectively. As to `O=C([C@@H]1CCCN(c2ccc3nc(C4(n5cc(F)cn5)CC4)[nH]c3n2)C1)N1CCCC1` [Example 73, (R)-(1-(2-(1-(4-Fluoro-1H-pyrazol-1-yl)cyclopropyl)-3H-imidazo[4,5-b]pyridin-5-yl)piperidin-3-yl)(pyrrolidin-1-yl)methanone], the values for the IC50 in experiment [1], in experiment [2] (setting [3]) and in experiment [2] (setting [4]) were 7.9 nM, 96.9 nM and 85 nM, respectively. On to `N#Cc1cnn(C2(c3nc4ccc(N5CCC[C@@H](C(=O)N6CCCC6)C5)nc4[nH]3)CC2)c1` [Example 76, (R)-1-(1-(5-(3-(Pyrrolidine-1-carbonyl)piperidin-1-yl)-3H-imidazo[4,5-b]pyridin-2-yl)cyclopropyl)-1H-pyrazole-4-carbonitrile], for which the IC50 in experiment [1] was determined as 25.1 nM; in experiment [2] (setting [3]) it was 227 nM.

Turning to `O=C([C@@H]1CCCN(c2ccc3nc(C4(n5cc(C(F)(F)F)cn5)CC4)[nH]c3n2)C1)N1CCCC1` [Example 78, (R)-Pyrrolidin-1-yl(1-(2-(1-(4-(trifluoromethyl)-1H-pyrazoL-1-yl)cyclopropyl)-3H-imidazo[4,5-b]pyridin-5-yl)piperidin-3-yl)methanone], the IC50 in experiment [1] turned out to be 9.4 nM; in experiment [2] (setting [3]), 83.8 nM. `O=C([C@@H]1CCCN(c2ccc3nc(C4(c5cccnc5)CC4)[nH]c3n2)C1)N1CCCC1` [Example 81, (R)-(1-(2-(1-(Pyridin-3-yl)cyclopropyl-1)-3H-imidazo[4,5-b]pyridin-5-yl)piperidin-3-yl)(pyrrolidin-1-yl)methanone]: the results for the IC50 in experiment [1] and in experiment [2] (setting [3]) were 47.7 nM and 204 nM, respectively. With `O=C([C@@H]1CCCN(c2ccc3nc(C4(c5ccccn5)CC4)[nH]c3n2)C1)N1CCCC1` [Example 82, (R)-(1-(2-(1-(Pyridin-2-yl)cyclopropyl)-3H-imidazo[4,5-b]pyridin-5-yl)piperidin-3-yl)(pyrrolidin-1-yl)methanone], the IC50 in experiment [1] was 15.8 nM; in experiment [2] (setting [3]), 165 nM. With `O=C([C@@H]1CCCN(c2ccc3nc(-c4ccnc(C5CC5)n4)[nH]c3n2)C1)N1CCCC1` [Example 95, (R)-(1-(2-(2-Cyclopropylpyrimidin-4-yl)-3H-imidazo[4,5-b]pyridin-5-yl)piperidin-3-yl)(pyrrolidin-1-yl)methanone], the IC50 in experiment [1] was determined as 15.9 nM; in experiment [2] (setting [3]), 18.2 nM. Turning to `O=C([C@@H]1CCCN(c2ncc3nc(C4(n5cc(Cl)cn5)CC4)[nH]c3n2)C1)N1CCCC1` [Example 108, (R)-(1-(8-(1-(4-Chloro-1H-pyrazol-1-yl)cyclopropyl)-9H-purin-2-yl)piperidin-3-yl)(pyrrolidin-1-yl)methanone], the 50% inhibitory concentration (IC50) in experiment [1] turned out to be 2.8 nM; in experiment [2] (setting [3]) it was 28.7 nM; in experiment [2] (setting [4]), 26.2 nM. For the compound `O=C([C@H]1CN(c2ccc3nc(C4(n5cc(Cl)cn5)CC4)[nH]c3n2)CCO1)N1CCCC1` [Example 141, (R)-(4-(2-(1-(4-Chloro-1H-pyrazol-1-yl)cyclopropyl)-3H-imidazo[4,5-b]pyridin-5-yl)morpholin-2-yl)(pyrrolidin-1-yl)methanone], the IC50 in experiment [1] stood at 10.7 nM; in experiment [2] (setting [3]) it was 354 nM; in experiment [2] (setting [4]), 301 nM. In the case of `O=C([C@H]1CN(c2ccc3nc(-c4cccc(C(F)F)n4)[nH]c3n2)CCO1)N1CCCC1` [Example 175, (R)-(4-(2-(6-(Difluoromethyl)pyridin-2-yl)-3H-imidazo[4,5-b]pyridin-5-yl)morpholin-2-yl)(pyrrolidin-1-yl)methanone], the IC50 was found to be 71.7 nM in experiment [1] and 91.3 nM in experiment [2] (setting [3]).

For `O=C([C@@H]1CCCN(c2ncc3nc(C4(n5cccn5)CC4)[nH]c3n2)C1)N1CCCC1` [Example 210, (R)-(1-(8-(1-(1H-Pyrazol-1-yl)cyclopropyl)-9H-purin-2-yl)piperidin-3-yl)(pyrrolidin-1-yl)methanone], the IC50 in experiment [2] (setting [3]) is 342 nM.

With `O=C(Nc1ccc(C(F)(F)F)nc1)c1nc2ccc(N3CCC[C@@H](C(=O)N4CCCC4)C3)nc2[nH]1` [Example 211, (R)-5-(3-(Pyrrolidine-1-carbonyl)piperidin-1-yl)-N-(6-(trifluoromethyl)pyridin-3-yl)-3H-imidazo[4,5-b]pyridine-2-carboxamide], the concentration for half-maximal inhibition (IC50) in experiment [2] (setting [3]) is 845 nM. Still for that read-out and setting: the same measure for `O=C([C@@H]1CCCN(c2ccc3nc(C4(n5cc(Cl)cn5)CC4)[nH]c3n2)C1)N1CC=CC1` [Example 212, (R)-(1-(2-(1-(4-Chloro-1H-pyrazol-1-yl)cyclopropyl)-3H-imidazo[4,5-b]pyridin-5-yl)piperidin-3-yl)(2,5-dihydro-1H-pyrrol-1-yl)methanone]: 18.9 nM. Take `O=C([C@H]1CN(c2ncc3nc(C4(n5cc(Cl)cn5)CC4)[nH]c3n2)CCO1)N1CCCC1` [Example 213, (R)-(4-(8-(1-(4-Chloro-1H-pyrazol-1-yl)cyclopropyl)-9H-purin-2-yl)morpholin-2-yl)(pyrrolidin-1-yl)methanone]: in experiment [2] (setting [3]), the IC50 came to 161 nM. Take `O=C([C@@H]1CCCN(c2ccc3nc(C4(n5nccn5)CC4)[nH]c3n2)C1)N1CCCC1` [Example 214, (R)-(1-(2-(1-(2H-1,2,3-Triazol-2-yl)cyclopropyl)-3H-imidazo[4,5-b]pyridin-5-yl)piperidin-3-yl)(pyrrolidin-1-yl)methanone]: the IC50 in experiment [2] (setting [3]) amounted to 396 nM.

Turning to `O=C([C@@H]1CCCN(c2ccc3nc(C4(n5ccnc5)CC4)[nH]c3n2)C1)N1CCCC1` [Example 215, (R)-(1-(2-(1-(1H-Imidazol-1-yl)cyclopropyl)-3H-imidazo[4,5-b]pyridin-5-yl)piperidin-3-yl)(pyrrolidin-1-yl)methanone], the IC50 in experiment [2] (setting [3]) turned out to be 483 nM.

Regarding `C[C@H]1CC[C@@H](C(=O)N2CCCC2)CN1c1ccc2nc(C3(n4cc(Cl)cn4)CC3)[nH]c2n1` [Example 216, ((3R,6S)-1-(2-(1-(4-Chloro-1H-pyrazol-1-yl)cyclopropyl)-3H-imidazo[4,5-b]pyridin-5-yl)-6-methylpiperidin-3-yl)(pyrrolidin-1-yl)methanone], in experiment [2] (setting [3]), the IC50 amounted to 9200 nM. Turning to `C[C@@H]1CC[C@H](C(=O)N2CCCC2)CN1c1ccc2nc(C3(n4cc(Cl)cn4)CC3)[nH]c2n1` [Example 217, ((3S,6R)-1-(2-(1-(4-chloro-1H-pyrazol-1-yl)cyclopropyl)-3H-imidazo[4,5-b]pyridin-5-yl)-6-methylpiperidin-3-yl)(pyrrolidin-1-yl)methanone], in experiment [2] (read-out: DGAT2 IC50), the IC50 turned out to be 131 nM. As to `O=C([C@@H]1CCCN(c2ccc3nc(-c4ccnc(C5CC5)n4)[nH]c3n2)C1)N1CCC1` [Example 220, (R)-Azetidin-1-yl(1-(2-(2-cyclopropylpyrimidin-4-yl)-3H-imidazo[4,5-b]pyridin-5-yl)piperidin-3-yl)methanone], the IC50 in experiment [2] (setting [3]) came out at 270 nM. Take `CN(CC1CC1)C(=O)[C@@H]1CCCN(c2ccc3nc(-c4ccnc(C5CC5)n4)[nH]c3n2)C1` [Example 221, (R)—N-(Cyclopropylmethyl)-1-(2-(2-cyclopropylpyrimidin-4-yl)-3H-imidazo[4,5-b]pyridin-5-yl)-N-methylpiperidine-3-carboxamide]: the IC50 in experiment [2] (setting [3]) amounted to 290 nM. Turning to `O=C([C@@H]1CCCN(c2ccc3nc(C4(c5cccnn5)CC4)[nH]c3n2)C1)N1CCCC1` [Example 222, (R)-(1-(2-(1-(Pyridazin-3-yl)cyclopropyl)-3H-imidazo[4,5-b]pyridin-5-yl)piperidin-3-yl)(pyrrolidin-1-yl)methanone], the IC50 in experiment [2] (setting [3]) was 531 nM.

In the case of `Cn1ncnc1C1(c2nc3ccc(N4CCC[C@@H](C(=O)N5CCCC5)C4)nc3[nH]2)CC1` [Example 223, (R)-(1-(2-(1-(1-Methyl-1H-1,2,4-triazol-5-yl)cyclopropyl)-3H-imidazo[4,5-b]pyridin-5-yl)piperidin-3-yl)(pyrrolidin-1-yl)methanone], the IC50 in experiment [2] (setting [3]) is 1370 nM.

Regarding “[(R)-1-{2-[1-(4-Chloro-1H-pyrazol-1-yl)cyclopropyl]-3H-imidazo[4,5-b]pyridin-5-yl}(2,2,6,6-^2H4)piperidin-3-yl](pyrrolidin-1-yl)methanone [Example 190]”, the IC50 in experiment [2] (read-out: DGAT2 IC50) came to 35.9 nM.
